# “Also recorded” adds a separate entry of the source.
# Experiments:
# SALL4 = assay: Western blot of SALL4: thalidomide with proteasome/NEDD8/UBA1 inhibitor co-treatment; details: Kelly, HEK293T, SK-N-DZ cells; thalidomide + 5 µM bortezomib, 5 µM MLN4924 or 0.5 µM MLN7243, 24 h
# IMiD-dependent targets = assay: Rescue proteomics: pomalidomide with MLN4924 co-treatment in SK-N-DZ cells; details: 1 µM pomalidomide + 5 µM MLN4924, 5 h
# ZFP91 = ZFP91 (Homo sapiens, UniProt Q96JP5+Q96SW2); assay: TMT proteomics SK-N-DZ cells: ZFP91 abundance; details: 5 h vs DMSO, pomalidomide 1 µM, lenalidomide 5 µM, CC-220 0.1 µM, dBET57 1 µM
# CISD2 = assay: TMT proteomics SK-N-DZ cells: CISD2 abundance; details: 5 h vs DMSO, CC-220 0.1 µM
# MRPL3 = assay: TMT proteomics SK-N-DZ cells: MRPL3 abundance; details: 5 h vs DMSO, CC-220 0.1 µM
# ATP5C1 = assay: TMT proteomics SK-N-DZ cells: ATP5C1 abundance; details: 5 h vs DMSO, CC-220 0.1 µM
# MRPS5 = assay: TMT proteomics SK-N-DZ cells: MRPS5 abundance; details: 5 h vs DMSO, CC-220 0.1 µM
# [1] = tested on: IMiD-dependent neo-substrates; assay: TMT proteomics profiling of IMiD-dependent neo-substrates (hESC, Kelly, SK-N-DZ, MM1s); type: cell-based, human; details: SK-N-DZ cells, 0.1 µM CC-220, 5 h (Figure 1—figure supplement 1C)
# Text: We established a mass spectrometry-based workflow (Figure 1—figure supplement 1A) to detect IMiD-induced protein degradation in hESC.
# Proteins were precipitated using methanol/chloroform.
# [2] = target: DDB1∆B-CRBN_(Spy-BodipyFL), Q16531;Q96SW2; assay: TR-FRET; details: value at the highest thalidomide dose (log(Thal) about -4.5 M); DDB1∆B-CRBN 1 µM, SALL4 ZnF4 100 nM, terbium-streptavidin 4 nM; parent: est. 0.27; read off a plot
# ZFP91, sequence (Q96JP5 2-570 limits assumed): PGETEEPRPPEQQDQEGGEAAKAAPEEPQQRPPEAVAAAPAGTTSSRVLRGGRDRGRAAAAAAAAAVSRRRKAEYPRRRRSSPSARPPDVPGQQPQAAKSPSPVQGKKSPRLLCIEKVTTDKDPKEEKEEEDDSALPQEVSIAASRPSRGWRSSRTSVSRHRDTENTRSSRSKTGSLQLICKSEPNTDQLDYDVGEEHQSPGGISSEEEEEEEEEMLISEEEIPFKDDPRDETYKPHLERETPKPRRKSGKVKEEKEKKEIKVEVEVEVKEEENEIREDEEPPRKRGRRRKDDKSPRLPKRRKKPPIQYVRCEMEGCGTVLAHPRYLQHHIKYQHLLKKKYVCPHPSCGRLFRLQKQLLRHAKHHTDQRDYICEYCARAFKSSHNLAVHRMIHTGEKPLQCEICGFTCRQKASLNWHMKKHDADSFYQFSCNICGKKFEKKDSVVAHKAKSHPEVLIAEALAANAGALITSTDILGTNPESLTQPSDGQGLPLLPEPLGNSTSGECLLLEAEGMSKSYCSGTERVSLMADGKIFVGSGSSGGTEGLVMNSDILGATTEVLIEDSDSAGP
# ZFP91, sequence (Q96SW2 whole entry): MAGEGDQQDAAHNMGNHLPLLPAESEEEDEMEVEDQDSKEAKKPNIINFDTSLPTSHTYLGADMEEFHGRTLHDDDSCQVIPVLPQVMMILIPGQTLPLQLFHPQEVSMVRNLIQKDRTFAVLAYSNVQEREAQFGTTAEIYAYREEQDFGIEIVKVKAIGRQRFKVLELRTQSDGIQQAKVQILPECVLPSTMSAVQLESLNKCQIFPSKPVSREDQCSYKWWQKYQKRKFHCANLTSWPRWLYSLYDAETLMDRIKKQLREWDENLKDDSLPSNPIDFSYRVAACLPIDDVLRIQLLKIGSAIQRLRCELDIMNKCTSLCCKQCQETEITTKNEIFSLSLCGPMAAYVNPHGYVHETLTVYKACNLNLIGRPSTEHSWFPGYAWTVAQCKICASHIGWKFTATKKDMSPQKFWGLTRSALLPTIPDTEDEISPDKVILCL
# ZFP91, sequence (Q16531 whole entry partner): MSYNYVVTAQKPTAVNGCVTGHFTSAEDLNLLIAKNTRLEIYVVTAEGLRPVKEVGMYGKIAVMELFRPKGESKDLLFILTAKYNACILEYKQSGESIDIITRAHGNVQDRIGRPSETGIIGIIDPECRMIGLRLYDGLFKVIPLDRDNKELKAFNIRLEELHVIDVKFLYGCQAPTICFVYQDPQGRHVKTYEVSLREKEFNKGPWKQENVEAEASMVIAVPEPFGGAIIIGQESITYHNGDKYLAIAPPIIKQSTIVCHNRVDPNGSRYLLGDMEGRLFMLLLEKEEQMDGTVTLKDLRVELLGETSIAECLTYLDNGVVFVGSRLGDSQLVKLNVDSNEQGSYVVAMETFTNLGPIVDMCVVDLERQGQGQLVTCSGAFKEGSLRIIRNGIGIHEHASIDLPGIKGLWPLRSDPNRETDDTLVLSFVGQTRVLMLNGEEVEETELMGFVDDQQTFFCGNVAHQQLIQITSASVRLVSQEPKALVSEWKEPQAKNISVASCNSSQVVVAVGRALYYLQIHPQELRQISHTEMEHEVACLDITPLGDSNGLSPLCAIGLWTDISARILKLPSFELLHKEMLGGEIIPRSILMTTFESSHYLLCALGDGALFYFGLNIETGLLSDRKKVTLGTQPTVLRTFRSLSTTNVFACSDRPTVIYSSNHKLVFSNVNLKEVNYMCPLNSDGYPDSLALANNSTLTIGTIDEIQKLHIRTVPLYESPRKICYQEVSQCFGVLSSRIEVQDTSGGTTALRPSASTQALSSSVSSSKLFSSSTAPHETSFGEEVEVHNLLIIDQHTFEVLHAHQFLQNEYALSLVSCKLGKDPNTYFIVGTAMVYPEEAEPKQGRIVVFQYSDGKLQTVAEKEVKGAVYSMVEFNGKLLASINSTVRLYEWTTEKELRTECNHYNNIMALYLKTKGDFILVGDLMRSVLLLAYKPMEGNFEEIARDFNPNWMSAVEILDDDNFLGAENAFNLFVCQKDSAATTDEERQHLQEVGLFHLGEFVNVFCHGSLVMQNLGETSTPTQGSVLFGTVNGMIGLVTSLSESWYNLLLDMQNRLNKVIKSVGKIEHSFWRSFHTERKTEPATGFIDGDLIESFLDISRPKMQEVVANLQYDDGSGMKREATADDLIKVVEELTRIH
compound,measurement,setting,value
NS(=O)(=O)OC[C@H]1C[C@@H](Nc2ccnc3cc(-c4cccc(SC(F)(F)F)c4)nn23)[C@H](O)[C@@H]1O [MLN7243],effect of co-treatment on IMiD-induced SALL4 degradation,SALL4,abrogated
NS(=O)(=O)OC[C@@H]1C[C@@H](n2ccc3c(N[C@H]4CCc5ccccc54)ncnc32)C[C@@H]1O [MLN4924],effect of co-treatment on IMiD-induced degradation of targets,IMiD-dependent targets,abrogated the degradation of all IMiD-dependent targets; also recorded: fully abrogated
same,effect of co-treatment on IMiD-induced SALL4 degradation,SALL4,abrogated
O=C1CC[C@H](N2Cc3c(OCc4ccc(CN5CCOCC5)cc4)cccc3C2=O)C(=O)N1 [CC-220],logFC ZFP91,ZFP91,-2.809
same,logFC CISD2,CISD2,-0.1946
same,logFC MRPL3,MRPL3,-0.1878
same,logFC ATP5C1,ATP5C1,-0.1591
same,logFC MRPS5,MRPS5,-0.1562
same,induction of degradation of ZnF targets including SALL4,[1],effective inducers of ZnF targets including SALL4 degradation
_(Strep-BirA)hsSALL4_(590-618) (ZnF4) (from UniProt Q9UJQ4) Q595H,response,[2],0.19 520/490
